Experimental data reported in paper PMC3820767, “Turning Defense into Offense: Defensin Mimetics as Novel Antibiotics Targeting Lipid II” (PLoS Pathogens, 2013).
Read-outs that look alike come from different tables or passages of the source.

Key:
Caco-2 = assay: Cytotoxicity by MTT assay; format: cell-based, human
[1] = system: Staphylococcus aureus ATCC 29213; assay: Antibacterial killing, 96-well turbidimetric (modified vCC) assay; format: cell-based; conditions: Table S3; concentration at which 100% killing occurred, no bacterial regrowth; No = not active
Method: (§1) The antibacterial activity of defensin mimetics against Staphylococcus aureus ATCC 29213 and Escherichia coli 25922 was carried out in a 96-well turbidimetric assay essentially as described previously with the following modifications: bacteria were exposed for 30 min to compounds in 10 mM phosphate buffer containing 5% DMSO prior to addition of 2× Muller-Hinton medium. Bacterial growth was monitored for 12 hours and data were analyzed as described. Determination of MICs was performed by Micromyx, LLC (Kalamazoo, Michigan) according to CLSI standards.

[2] = system: Escherichia coli ATCC 25922; assay: as above; format: cell-based; conditions: Table S3; concentration at which 100% killing occurred, no bacterial regrowth; No = not active
Method: as §1

[3] = Surface Plasmon Resonance binding to immobilized 3-Lipid II; conditions: Table S3; SPR, initial determination at 10 µM
Method: Surface Plasmon Resonance binding experiments were carried out on a BIAcore T100 system (BIAcore Inc., Piscataway, NY) at 25°C. The assay buffer was 10 mM HEPES, 150 mM NaCl, 0.05% surfactant P20, pH 7.4 (±3 mM EDTA) supplemented with 10% DMSO. […] For initial determination of binding, defensin mimetics were introduced into the flow-cells (30 µl/min) in the running buffer at 10 µM. Resonance signals were corrected for nonspecific binding by subtracting the background of the control flow-cell. After each analysis, the sensor chip surfaces were regenerated with 50 mM NaOH for 30 s at a flow rate 100 µl/min, and equilibrated with the buffer prior to next injection. For binding kinetics studies, binding isotherms were analyzed with manufacturer-supplied software for BIAcore T100.

Structure (SMILES) | cytotoxic for Caco II (C50% survival) (Caco-2; Table S3, No = not cytotoxic) | active against S.aureus (IC100%) [1] | active against E.coli (IC100%) [2] | Binding on Lipid II? [3] | cytotoxic for Caco II (C50% survival) (Caco-2) | IC50 (Caco-2) [µM] | IC50 (Caco-2; Table S3, No = not cytotoxic, read-out: cytotoxic for Caco II (C50% survival)) [µM]
OCCSc1ccc(-c2ccc(SCCO)cc2)cc1 [Compound 5230234, 2,2'-[4,4'-biphenyldiylbis(thio)]diethanol] | No | No | No | No |  |  | 
Cc1cc2ccccc2n1C=CC1=[N+](C)c2ccccc2C1(C)C [4431/1, 1,3,3-trimethyl-2-(2-(2-methyl-1H-indol-1-yl)vinyl)-3H-1λ5-indole] |  | 250 µM | No | No | No |  | 
CC(C)(C)c1csc(N2N=C(c3ccccc3)C(=NNc3ccccc3)C2=O)n1 [BAS00691248, 2-(4-tert-Butyl-thiazol-2-yl)-5-phenyl-4-(phenyl-hydrazono)-2,4-dihydro-pyrazol-3-one] |  | No | No | No | No |  | 
CCN1C(=CC(C)=Cc2sc3ccccc3[n+]2CC)Sc2ccccc21 [96932/4, 3-ethyl-2-(3-(3-ethyl-1,3-benzothiazol-2(3H)-ylidene)-2-methyl-1-propenyl)-1,3λ5-benzothiazole] |  | 15,6 µM | 15.625 µM | No |  | 19 | 
CN(C)c1ccc(C=CCN2CCN(Cc3ccccc3)CC2)cc1 [Compound 5429346, 4-[3-(4-benzyl-1-piperazinyl)-1-propen-1-yl]-N,N-dimethylaniline] |  | 500 µM | No | Yes |  | 132 | 
O=C(O)C(=O)O.c1ccc(CCCN2CCC(N3CCN(c4ccccc4)CC3)CC2)cc1 [Compound 6785396, 1-phenyl-4-[1-(3-phenylpropyl)-4-piperidinyl]piperazine oxalate] |  | No | No | No |  | 168 | 
CCCCN(CC#Cc1ccc(C#CCN(CCCC)CCCC)cc1)CCCC.Cl.Cl [Compound 5230313, 3,3'-(1,4-phenylene)bis(N,N-dibutyl-2-propyn-1-amine) dihydrochloride] |  | No | No | Yes |  | 366 | 
OCCSc1ccc(Cc2ccc(SCCO)cc2)cc1 [Compound 5210734, 2,2'-[methylenebis(4,1-phenylenethio)]diethanol] |  | No | No | No | No |  | 
CN(C)c1ccc(C=C2C=C(c3ccccc3)OC(c3ccccc3)=C2)cc1 [Compound 3377-0105, 4-[(2,6-diphenyl-4H-pyran-4-ylidene)methyl]-N,N-dimethylaniline] |  | 500 µM | No | No |  | 100 | 
Cc1cc(C2(c3ccc(O)c(C)c3)C(=O)N(Cc3ccccc3)c3ccccc32)ccc1O [Compound 5142587, 1-benzyl-3,3-bis(4-hydroxy-3-methylphenyl)-2,3-dihydro-1H-indol-2-one] |  | 15,625 µM | No | No |  | 4.4 | 
Cc1ccc(CN2C(=O)c3ccccc3C2(O)Cc2ccccc2)cc1 (centres unmarked) [Compound 7832238, 3-benzyl-3-hydroxy-2-[(4-methylphenyl)methyl]-2,3-dihydro-1H-isoindol-1-one] |  | No | No | No | No |  | 
CC(C)(O)C#Cc1ccc(C#Cc2ccc(C#CC(C)(C)O)cc2)cc1 [Compound 7191067, 4,4'-(1,2-ethynediyldi-4,1-phenylene)bis(2-methyl-3-butyn-2-ol)] |  | No | No | No | No |  | 
O=Cc1ccc2c(c1)C1c3ccccc3C2c2ccccc21 [Compound 5100004, pentacyclo[6.6.6.0^{2,7}.0^{9,14}.0^{15,20}]icosa-2,4,6,9,11,13,15,17,19-nonaene-4-carbaldehyde] |  | No | No | No | No |  | 
CCCN1CCC(NCc2cccc(C(F)(F)F)c2)CC1 [Compound 5452876, 1-propyl-N-[3-(trifluoromethyl)benzyl]-4-piperidinamine] |  | No | No | No | No |  | 
CC(CCc1ccc(O)cc1)NCCc1ccccc1 (centres unmarked) [Compound 5460400, 4-{3-[(2-phenylethyl)amino]butyl}phenol] | No | No | No | No |  |  | 
OCC(CO)C1c2cccc3ccc4cccc1c4c23 [625586/1, 2-(4H-cyclopenta[def]phenanthren-4-yl)-1,3-propanediol] |  | No | No | No |  | 83.8 | 
CN(C)c1ccc(C(c2ccc(N(C)C)cc2)C(O)c2ccccc2)cc1 (centres unmarked) [35487/2, 2,2-bis(4-(dimethylamino)phenyl)-1-phenylethanol] |  | No | No | No | No |  | 
COc1ccc(-c2cn(CC(=O)N(c3ccccc3)C(C)C)c3[n+]2CCC3)cc1 [STL050072, 3-(4-methoxyphenyl)-1-{2-oxo-2-[phenyl(propan-2-yl)amino]ethyl}-1,5,6,7-tetrahydropyrrolo[1,2-a]imidazol-4-ium] |  | No | No | No |  | 340 | 
OCCSc1c(F)c(SCCO)c(SCCO)c(F)c1SCCO [Compound 0438-0367, 2-({2,5-difluoro-3,4,6-tris[(2-hydroxyethyl)sulfanyl]phenyl}sulfanyl)ethan-1-ol] |  | No | No | No | No |  | 
CCN1/C(=C\C=C\c2sc3c4ccccc4[se]c3[n+]2CC)Sc2c1[se]c1ccccc21 [STK368153, 3-ethyl-2-[(1E,3E)-3-(3-ethyl[1]benzoselenopheno[2,3-d][1,3]thiazol-2(3H)-ylidene)prop-1-en-1-yl][1]benzoselenopheno[2,3-d][1,3]thiazol-3-ium] |  | 7,8 µM | 7,8 µM | Yes |  | 9.6 | 
OCc1ccc2c(c1)C1c3ccccc3C2c2ccccc21 [Compound 5100015, pentacyclo[6.6.6.0~2,7~.0~9,14~.0~15,20~]icosa-2,4,6,9,11,13,15,17,19-nonaen-4-ylmethanol] |  | 500 µM | No | No |  | 68 | 
CN(C)c1ccc(C2C=C(c3ccccc3)Oc3ccccc32)cc1 (centres unmarked) [55870/1, N,N-dimethyl-4-(2-phenyl-4H-chromen-4-yl)aniline] |  | 250 µM | No | Yes |  | 25.9 | 
Cc1cc2c(cc1C)CSC(c1ccc(O)cc1)SC2 [Compound 2729-1114, 4-(7,8-dimethyl-3,5-dihydro-1H-2,4-benzodithiepin-3-yl)phenol] |  | No | No | No |  |  | 119
CN1CCC(N(Cc2ccccc2)C(=O)CCc2ccc3c(c2)n(C)c(=O)n3C)CC1 [SYN22879441, N-Benzyl-3-(1,3-dimethyl-2-oxo-2,3-dihydro-1H-benzoimidazol-5-yl)-N-(1-methyl-piperidin-4-yl)-propionamide] |  | No | No | No | No |  | 
OC(c1cccc2ccccc12)c1c2ccccc2cc2ccccc12 (centres unmarked) [179415/1, 9-anthryl(1-naphthyl)methanol] | No | 3,9 µM | No | Yes |  |  | 
FC(F)(F)c1cccc(N2CCN(CCc3ccccc3)CC2)c1 [Compound 5422765, 1-(2-phenylethyl)-4-[3-(trifluoromethyl)phenyl]piperazine] |  | No | No | Yes |  | 130 | 
